# Measurements published in patent US11191803B2, “Laminin receptor peptides for therapy” (priority 2017, dated 2021).
# “And” between values parts separate entries of the source, which are not always exact repeats. Identical values can stand only once.
# Assays:
# ALS/MND patients [1] = settings: 24 week treatment; mixed patient population, median ALSFRS-R score 43; cited from earlier work
# ALS/MND patients [2] = settings: over 24 weeks; mildly symptomatic group; placebo lost 7.5 points; cited from earlier work
# ALS/MND patients [3] = experiment: Second Phase III trial of Edaravone in a selected mildly symptomatic group; settings: 24 weeks; mildly symptomatic subgroup
# ALS/MND patients [4] = settings: cited from earlier work
# ALS/MND patients [5] = experiment: Clinical data: ALSFRS-R score in ALS/MND patients treated on a named patient basis for 6 months; type: in vivo, human
# Text: Clinical data were obtained from 19 ALS/MND patients treated on a named patient basis, for a period of 6 months, with the Peptide A dimer (SEQ ID NO: 3).
# Average time from diagnosis to treatment was 17.8 months and the decline rate from diagnosis to start of treatment was established for each patient, which averaged at −1.24+/−0.7 decline per month on the ALSFRS-R score. Mean ALSFRS-R score at start of treatment was 32.94+/−8.13, median score 36 (min-max 15-44).
# [6] = test system: isolated rat islet cultures; experiment: Glucagon secretion from collagenase-isolated rat pancreatic islet cultures (Quantikine ELISA); type: cell-based, Wistar rats; settings: peptide 1 μg/ml; for Glucagon level, Medium plus Peptide A: RPMI 1640, 11 mmol/L glucose, 10% FCS
# Experimental: Digestion of pancreatic tissue with collagenase to isolate islets causes similar disruption to the signalling molecules via disorganization of ECM components including laminin, fibronectin and collagen (Lee & Blaufox, J Nucl Med, 1985, 25:72-76) that results in similarly abnormally high glucagon secretion.
# Islets from 2 Wistar rats (˜250 g) were isolated according to the method of Li et al. (Nature Protocols, 2009, 4:1649-1652) and suspended in 30 ml RPMI 1640 containing 11 mmol/L glucose and 10% FCS. One ml islet suspension was added to each well of 24-well plates. Peptide A dimer (SEQ ID NO: 3) was dissolved in HBSS at 100 μg/ml and added to wells at a final concentration of 1 μg/ml. After appropriate incubation times, samples were removed for glucagon measurements using Quantikine ELISA Immunoassay (R&D Systems).
# pancreatic α-cell line = settings: culture of a pancreatic α-cell line; cited from earlier work
molecule,measurement,setting,value
CC1=NN(c2ccccc2)C(=O)C1 [Edaravone],Efficacy in initial Phase III trial,ALS/MND patients [1],failed to show any efficacy
same,Loss on the ALSFRS-R score,ALS/MND patients [2],5 points
same,Slowing down of progression vs placebo,ALS/MND patients [3],33.3%
Nc1nc2ccc(OC(F)(F)F)cc2s1 [Riluzole],Functional advantage,ALS/MND patients [4],no functional advantage demonstrated
CVPSVPIQQFPTEDWS CVPSVPIQQFPTEDWS [Peptide A dimer],"Participants who stabilized and rose one point each on the ALSFRS-R scale, share of group",ALS/MND patients [5]; 2/19 patients,10.5%
same,% Slower Progression (actual vs predicted decline),ALS/MND patients [5]; 19 ALS/MND patients,62% and 62.07%
same,"ALSFRS-R Score, C Actual","ALS/MND patients [5]; 19 ALS/MND patients, actual score to time of analysis, baseline 32.94",29.53 +/− 8.26
same,Actual Decline (A-C) in ALSFRS-R score,"ALS/MND patients [5]; 19 ALS/MND patients, predicted decline A-B = 8.99",A-C = 3.41
same,% Slower Progression (actual vs predicted decline),ALS/MND patients [5]; subgroup 7 of 19 patients with faster predicted decline,76.6%
same,"ALSFRS-R Score, C Actual","ALS/MND patients [5]; subgroup 7 of 19 patients with faster predicted decline, baseline 30.43",27.00 +/− 9.90
same,Actual Decline (A-C) in ALSFRS-R score,"ALS/MND patients [5]; subgroup 7 of 19 patients, predicted decline A-B = 14.7",A-C = 3.43
same,% Reduction of glucagon secretion vs medium alone,[6]; 4 hours,31.6%
same,"Glucagon level, Medium plus Peptide A",[6]; 4 hours,425.6 ± 14.8 pg/mL
same,% Reduction of glucagon secretion vs medium alone,[6]; 24 hours,44.8%
same,"Glucagon level, Medium plus Peptide A",[6]; 24 hours,144.8 ± 8.8 pg/mL
same,% Reduction of glucagon secretion vs medium alone,[6]; 72 hours,55.2%
same,"Glucagon level, Medium plus Peptide A",[6]; 72 hours,98.3 pg/mL and 98.3 ± 4.7 pg/mL
methyl-β-cyclodextrin,Glucagon secretion change,pancreatic α-cell line,doubling of the glucagon secretion
same,Reduction of cholesterol,pancreatic α-cell line,approximately 60%
